In patent US9642869B2, “Boronic acid derivatives and therapeutic uses thereof” (Rempex Pharmaceuticals, Inc., priority 2013, dated 2017):
Where two headings read alike, the source gives them in different places.

What was measured:
[1] = tested on: CTX-M-15 KP1009; type: cell-based
[2] = Intravenous pharmacokinetics; type: in vivo; conditions: rat, plasma, rats, IV infusion over 0.5 hours, read-out: Free Cl (converted)
Method: Rats (n=3 per compound) were administered by a single infusion. IV doses were infused over 0.5 hours via an indwelling femoral vein cannula. Plasma (˜0.3 mL) samples were collected from each rat at designated time points up to 24 hours. Blood samples were centrifuged within 5 min of collection at 12000 g for 5 min to obtain plasma. The plasma samples were stored at −80° C. until analyzed. Data were analyzed using WinNonlin.

[3] = tested on: ECL1002; type: cell-based; conditions: minimum BLI concentration inhibiting growth with tigemonam at 4 μg/mL
[4] = tested on: CTX-M-14 KP1005; type: cell-based
[5] = tested on: ECL1002; assay: Aztreonam potentiation (MPC@4); type: cell-based; conditions: minimum BLI concentration inhibiting growth with 4 μg/mL aztreonam
[6] = target: SHV-12 (Klebsiella pneumoniae, UniProt P0AD64, E235K/G234S/L31Q); assay: Inhibition of nitrocefin cleavage by purified enzyme (Ki); type: biochemical; conditions: nitrocefin reporter substrate, 10 min preincubation; read-out: Ki (SHV-12, NCF)
SHV-12, sequence (P0AD64 22-286 L31Q/G234S/E235K): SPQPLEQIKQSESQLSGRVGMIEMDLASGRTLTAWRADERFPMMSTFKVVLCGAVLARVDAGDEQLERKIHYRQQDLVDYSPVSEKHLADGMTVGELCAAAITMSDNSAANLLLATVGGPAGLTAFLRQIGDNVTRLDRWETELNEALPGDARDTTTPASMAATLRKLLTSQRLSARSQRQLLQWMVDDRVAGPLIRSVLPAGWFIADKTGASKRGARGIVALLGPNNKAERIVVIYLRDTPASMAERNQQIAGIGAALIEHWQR
Method: Purified enzymes were mixed with various concentrations of inhibitors in reaction buffer and incubated for 10 min at room temperature. Nitrocefin was added and substrate cleavage profiles were recorded at 490 nm every 10 sec for 10 min.

[7] = tested on: SHV-5 ec308; assay: Aztreonam potentiation (MPC@4); type: cell-based; conditions: minimum BLI concentration inhibiting growth with 4 μg/mL aztreonam
[8] = tested on: TEM-10 ec302; type: cell-based
[9] = tested on: OXA-48 KP1086; assay: Biapenem potentiation (MPC@1); type: cell-based; conditions: minimum BLI concentration inhibiting growth with 1 μg/mL biapenem
Method: (§1) Biapenem was present in the test medium at 1 μg/mL. […] Table 3 summarizes the BLI potency of biapenem potentiation (MPC@1) for two strains overexpressing class A (KPC) and class D (OXA-48) carbapenemases. Biapenem MIC for each strain is also shown.

[10] = tested on: KP1004 KPC-2; assay: Biapenem potentiation (MPC@1); type: cell-based; conditions: minimum BLI concentration inhibiting growth with 1 μg/mL biapenem
Method: as §1

[11] = tested on: KPC-2 KP1004; assay: Aztreonam potentiation (MPC@4); type: cell-based; conditions: minimum BLI concentration inhibiting growth with 4 μg/mL aztreonam
[12] = tested on: CTX-M-15 KP1009; assay: Aztreonam potentiation (MPC@4); type: cell-based; conditions: minimum BLI concentration inhibiting growth with 4 μg/mL aztreonam
[13] = tested on: SHV-5 ec308; type: cell-based; conditions: minimum BLI concentration inhibiting growth with tigemonam at 4 μg/mL
[14] = tested on: CMY-6 EC1010; assay: Aztreonam potentiation (MPC@4); type: cell-based; conditions: minimum BLI concentration inhibiting growth with 4 μg/mL aztreonam

Compound | TIG MPC4 CTX-M-15 KP1009 [1] | clearance ([2]; dose 20 mg/kg) | TIG MPC4 ECL1002 [3] | TIG MPC4 CTX-M-14 KP1005 [4] | AZT MPC4 ECL1002 [5] | Ki [6] | AZT MPC4 SHV-5 ec308 [7] | TIG MPC4 TEM-10 ec302 [8] | BPM MPC1 OXA-48 KP1086 [9] | BPM MPC1 KP1004 KPC-2 [10] | AZT MPC4 KPC-2 KP1004 [11] | AZT MPC4 CTX-M-15 KP1009 [12] | TIG MPC4 SHV-5 ec308 [13] | clearance ([2]; dose 10 mg/kg) | AZT MPC4 CMY-6 EC1010 [14]
O=CN[C@H]1Cc2cccc(C(=O)O)c2OB1O [Compound 4, (R)-3-formamido-2-hydroxy-3,4-dihydro-2H-benzo[e][1,2]oxaborinine-8-carboxylic acid] | Y (key: X: MIC of less than 1 μg/mL; Y: MIC of 1 μg/mL to 10 μg/mL; Z: MIC of greater than 10 μg/mL) | 28.8 mL/min/kg | X (MIC of less than 1 μg/mL) | Y (key: X: MIC of less than 1 μg/mL; Y: MIC of 1 μg/mL to 10 μg/mL; Z: MIC of greater than 10 μg/mL) | Y (MIC of 1 μg/mL to 10 μg/mL) | 1 to 10 nM | Y (MIC of 1 μg/mL to 10 μg/mL) | Z (key: X: MIC of less than 1 μg/mL; Y: MIC of 1 μg/mL to 10 μg/mL; Z: MIC of greater than 10 μg/mL) | Y (MIC of 1 μg/mL to 10 μg/mL) | X (MIC of less than 1 μg/mL) | X (MIC of less than 1 μg/mL) | Y (MIC of 1 μg/mL to 10 μg/mL) | Y (MIC of 1 μg/mL to 10 μg/mL) | – | –
Nc1nnc(C(=O)N[C@H]2Cc3cccc(C(=O)O)c3OB2O)s1 [Compound 19, (R)-3-(5-amino-1,3,4-thiadiazole-2-carboxamido)-2-hydroxy-3,4-dihydro-2H-benzo[e][1,2]oxaborinine-8-carboxylic acid] | Y (key: X: MIC of less than 1 μg/mL; Y: MIC of 1 μg/mL to 10 μg/mL; Z: MIC of greater than 10 μg/mL) | – | Y (MIC of 1 μg/mL to 10 μg/mL) | Y (key: X: MIC of less than 1 μg/mL; Y: MIC of 1 μg/mL to 10 μg/mL; Z: MIC of greater than 10 μg/mL) | Y (MIC of 1 μg/mL to 10 μg/mL) | < 1 nM | X (MIC of less than 1 μg/mL) | Y (key: X: MIC of less than 1 μg/mL; Y: MIC of 1 μg/mL to 10 μg/mL; Z: MIC of greater than 10 μg/mL) | Y (MIC of 1 μg/mL to 10 μg/mL) | X (MIC of less than 1 μg/mL) | Y (MIC of 1 μg/mL to 10 μg/mL) | – | X (MIC of less than 1 μg/mL) | 20.8 mL/min/kg | X (MIC of less than 1 μg/mL)
O=C(CSC(F)F)N[C@H]1Cc2cccc(C(=O)O)c2OB1O [Compound 3, (R)-3-(2-(difluoromethylthio)acetamido)-2-hydroxy-3,4-dihydro-2H-benzo[e][1,2]oxaborinine-8-carboxylic acid] | X (key: X: MIC of less than 1 μg/mL; Y: MIC of 1 μg/mL to 10 μg/mL; Z: MIC of greater than 10 μg/mL) | 40.8 mL/min/kg | Y (MIC of 1 μg/mL to 10 μg/mL) | X (key: X: MIC of less than 1 μg/mL; Y: MIC of 1 μg/mL to 10 μg/mL; Z: MIC of greater than 10 μg/mL) | Y (MIC of 1 μg/mL to 10 μg/mL) | < 1 nM | X (MIC of less than 1 μg/mL) | Y (key: X: MIC of less than 1 μg/mL; Y: MIC of 1 μg/mL to 10 μg/mL; Z: MIC of greater than 10 μg/mL) | Y (MIC of 1 μg/mL to 10 μg/mL) | X (MIC of less than 1 μg/mL) | Y (MIC of 1 μg/mL to 10 μg/mL) | – | X (MIC of less than 1 μg/mL) | – | X (MIC of less than 1 μg/mL)
